What all share (experiment): DTP human tumour cell line panel, 48 h
Assay [1] relates to 786-0 renal.
Assay [2] relates to EKVX NSCLC.
The test system of assay [3] is HCT-116 colon.
The test system of assay [4] is HOP-62 NSCLC.
Assay [5] deals with LOX IMVI melanoma.
For assay [6], the system named is NCI-H23 lung.
Assay [7] deals with OVCAR-4 ovarian.
The test system of assay [8] is SF-268 CNS.
In assay [9] the test system is SN12C renal.
Assay [10] concerns UO-31 renal.

Several values for one entry are separate records, joined by “and”; a condition that tells them apart may be missing. Equal entries are not always repeated.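 All cell lines were grown in 96-well plates and treated with compound for 48 hours. At the GI50, growth is halved. The concentration for full growth arrest is given as TGI.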

What is called GI50 is the concentration at which growth is held to half of that of the control. For orientation: TGI means the concentration at which net growth stops. Low values mean greater sensitivity of the cells, high ones lower sensitivity of the cells. `NC(=S)N/N=C1\c2cc(Cl)ccc2-c2c1cc(Cl)cc2[N+](=O)[O-]`: the GI50 in assay [1] is 5.41 µM; in assay [2], 4.65 µM; in assay [3], 2.89 µM; in assay [4] it was 7.12 µM; in [5], 9.35 µM; in [6], 3.86 µM. Besides, the GI50 in assay [7] was 1.92 µM; in [8] it was 9.79 µM; in assay [9], 4.58 µM; in assay [10], 4.81 µM. Further, the TGI was 91.3 µM in assay [1]; 95.6 µM in [2]; 27.4 µM in [3]; 74.7 µM in assay [4]; more than 100 µM in [5]; more than 100 µM in assay [6]. Besides, the TGI in assay [7] was 8.35 µM; in [8], more than 100 µM; in [9], more than 100 µM; in [10], 70.2 µM.

For the compound `Cc1cc2c(cc1C)[n+](=O)c(C(=O)c1ccccc1)c(C(F)F)n2[O-]`, the GI50 is 32 µM in assay [1]; 9.43 µM in assay [2]; 30.8 µM in assay [3]; 26.4 µM in [4]; 10.3 µM in assay [5]; 26.3 µM in assay [6]. Also, the GI50 in [7] is 14.2 µM; in [8], 13 µM; in [9], 25.7 µM; in [10], 19.2 µM. The TGI in assay [1] was more than 100 µM; in [2], 44.6 µM; in assay [3], more than 100 µM; in assay [4] it was more than 100 µM; in assay [5], more than 100 µM; in assay [6] it was more than 100 µM. Besides, the TGI in assay [7], in assay [8], in assay [9] and in assay [10] was more than 100 µM in each case.

Take `O=C(NC1C=CCC2C(=O)N(c3ccccc3)C(=O)C12)OCc1ccccc1` (stereo not given): the TGI in assay [1], in assay [2], in [3], in assay [4], in assay [5] and in [6] was more than 100 µM throughout. Further, the TGI in assay [7], in [8], in assay [9] and in [10] was more than 100 µM each time.

Consider `Cc1ccc(S(=O)(=O)N2CCC2c2ccccc2)cc1` (stereo not given), for which the TGI in [1], in [2], in assay [3], in assay [4], in assay [5] and in assay [6] was more than 100 µM each time. For the same compound, the TGI in assay [7], in assay [8], in [9] and in assay [10] was more than 100 µM each time.

Regarding `C=CC(=O)Nc1cc(Nc2nccc(-c3cn(C)c4ccccc34)n2)c(OC)cc1N(C)CCN(C)C`, the GI50 in assay [1] was 1.4 µM and 1.38 µM; in [2] it was 0.751 µM and 0.2 µM; in [3], 1.72 µM and 1.51 µM; in assay [4] it was 4.07 µM and 3.58 µM; in assay [5], 1.75 µM and 1.41 µM; in [6] it was 4.76 µM and 3.39 µM. Further, the GI50 was 2.74 µM and 2.42 µM in [7]; 1.95 µM and 1.87 µM in assay [8]; 2.2 µM and 1.2 µM in assay [9]; 0.604 µM and 0.444 µM in [10]. Further, the TGI was 2.94 µM and 2.9 µM in [1]; 4.08 µM and 3.4 µM in assay [2]; 3.3 µM and 2.96 µM in assay [3]; 18.3 µM and > 10 µM in [4]; 3.55 µM and 2.86 µM in [5]; 17.9 µM and > 10 µM in [6]. Besides, the TGI is 20.5 µM and > 10 µM in assay [7]; 7.02 µM and > 10 µM in assay [8]; 8.58 µM and 4.36 µM in assay [9]; 4.09 µM and 2.08 µM in [10].

In the case of `O=C(NC1CCCCC1)NS(=O)(=O)c1ccc(N2N=C3c4ccccc4CC3C2c2ccc(Cl)cc2)cc1` (stereo not given), the GI50 in [1] was 13.3 µM; in [2], 5.38 µM; in assay [3] it was 5.15 µM; in assay [4], 15 µM; in [5], 10.3 µM; in [6] it was 12.2 µM. Besides, the GI50 in assay [7] is 38.5 µM; in assay [8], 6.78 µM; in assay [9], 16.8 µM; in assay [10], 20 µM. Also, the TGI in assay [1] came out at 26.3 µM; in assay [2] it was 22.8 µM; in assay [3], 18.6 µM; in assay [4] it was 30.9 µM; in [5] it was 21.9 µM; in assay [6], 36.2 µM. Besides, the TGI in assay [7] is more than 100 µM; in assay [8], 34.9 µM; in assay [9], 32.6 µM; in assay [10], 40.7 µM.

Take `C[C@@]1(O)CC[C@]2(C)C3CCCC3[C@H]12` (stereo not given in full): the total growth inhibition concentration (TGI) in assay [1], in [2], in [3], in assay [4], in assay [5] and in assay [6] was more than 100 µM in each case. Moreover, the TGI in assay [7], in assay [8], in assay [9] and in [10] was more than 100 µM each time.

For `C=C(C)C12OC1[C@@]1(C)C(=CC2=O)CCC(O)[C@@H]1C` (stereo not given in full), the TGI in assay [1] is 13.4 µM; in assay [2] it was 6.69 µM; in [3] it was 14.2 µM; in assay [4], 11.7 µM; in assay [5], 16.6 µM; in assay [6], 16.2 µM. Moreover, the TGI in [7] was more than 100 µM; in assay [8] it was 14.7 µM; in assay [9] it was 11.5 µM; in assay [10], 41.9 µM.

Consider `CN(C)CC(O)c1ccc(/C=C/c2ccc(Cl)cc2)cc1` (stereo not given), for which the GI50 is 1.63 µM in [1]; 1.34 µM in [2]; 1.46 µM in assay [3]; 3.13 µM in [4]; 1.63 µM in assay [5]; 1.62 µM in assay [6]. In addition, the GI50 was 2.49 µM in [7], 1.49 µM in assay [8], 10.4 µM in assay [9] and 1.3 µM in [10]. The TGI came to 2.99 µM in [1]; 3.19 µM in assay [2]; 2.78 µM in assay [3]; 14 µM in assay [4]; 2.98 µM in assay [5]; 3.19 µM in [6]. For the same compound, the TGI in assay [7] was determined as 6.58 µM; in [8], 2.88 µM; in assay [9] it was 22.9 µM; in assay [10], 2.61 µM.

Source of the values: PubChem BioAssay (NCI).
